Values after ≈ are worked out from the molar mass of the structure shown.

In series [1] the test system is Bacillus subtilis ATCC 6633. Description: Minimum inhibitory concentration, agar dilution method. It is filed as cell-based. To be noted: ATCC6633. An excerpt: (§1) The physical and chemical properties and the minimum inhibitory concentration against various microorganisms as measured by agar dilution method of pyrrolomycin E as obtained by the above-described method are as follows: […]
On the technique in general: Agar dilution tests growth on a series of plates holding different concentrations.

The subject of series [2] is Escherichia coli NIHJ JC-2. The series is described as above. It is filed as cell-based. The settings on record: NIHJJC2.
Text: as §1

In series [3] the test system is Escherichia coli W 3630 RGN823. The description is as above. It is filed as cell-based. To be noted: W3630RGN823, read-out: Minimum Inhibitory Concentration.
Text: as §1

The test system of series [4] is Klebsiella pneumoniae PCI-602. The description is as above. To be noted: PCI602. It is filed as cell-based.
Text: as §1

Series [5] relates to Proteus vulgaris OX-19. The description is as above. It is filed as cell-based. The settings on record: OX19.
Text: as §1

The test system of series [6] is Pseudomonas aeruginosa IAM 1007. Described as above. It is filed as cell-based. To be noted: IAM1007.
Text: as §1

The subject of series [7] is Salmonella typhi 0-901-W. The description is as above. The settings on record: Salmonella enterica, read-out: Minimum Inhibitory Concentration. It is filed as cell-based.
Text: as §1

The test system of series [8] is Serratia marcescens No. 1. Described as above. It is filed as cell-based.
Text: as §1

Series [9] concerns Staphylococcus aureus FDA209PJC-1. Described as above. It is filed as cell-based. To be noted: FDA209PJC1.
Text: as §1

The test system of series [10] is Staphylococcus aureus Smith. Described as above. It is filed as cell-based.
Text: as §1

Series [11] deals with Staphylococcus epidermidis ATCC 14990. The description is as above. It is filed as cell-based. To be noted: ATCC14990.
Text: as §1

A short description of series [12]: Solubility. It is filed as physicochemical.
A short description of series [13]: Nature of the substance (acidity). It is filed as physicochemical.
Series [14] concerns mice. The settings on record: mouse, in vivo, ip, 10 mg/kg.

As to `O=[N+]([O-])c1cc(Cl)[nH]c1-c1cc(Cl)cc(Cl)c1O` [pyrrolomycin E], the MIC in [1] was 0.025 µg/mL (≈ 0.0813 µM); in [2], > 100 µg/mL; in [3], 12.5 µg/mL (≈ 40.6 µM); in [4], > 100 µg/mL; in [5], 6.25 µg/mL (≈ 20.3 µM); in [6], > 100 µg/mL. The MIC in series [7] is > 100 µg/mL; in series [8], > 100 µg/mL; in series [9] it was 1.56 µg/mL (≈ 5.07 µM); in series [10] it was 1.56 µg/mL (≈ 5.07 µM); in series [11], 1.56 µg/mL (≈ 5.07 µM). The Solubility entry in series [12] (acetone) is on record as “Soluble”; in series [12] (ethyl acetate) it was “Soluble”; in [12] (methanol), “Soluble”; in series [12] (n-hexane) it was “sparingly soluble”; in series [12] (water), “sparingly soluble”. Moreover, in [13], the “acidity of the substance” value is “Weak acidic substance”. Moreover, in series [14], the “acute toxicity (survival)” value is “All mice survived”.
